This note sets out measurements from US7932262B2 (Novartis AG, priority 2006, dated 2011).

Read-outs that look alike come from different tables or passages of the source.

Assay [1] deals with T1, PDK1 kinase (Homo sapiens, UniProt O15530).
T1 sequence (O15530 1-556): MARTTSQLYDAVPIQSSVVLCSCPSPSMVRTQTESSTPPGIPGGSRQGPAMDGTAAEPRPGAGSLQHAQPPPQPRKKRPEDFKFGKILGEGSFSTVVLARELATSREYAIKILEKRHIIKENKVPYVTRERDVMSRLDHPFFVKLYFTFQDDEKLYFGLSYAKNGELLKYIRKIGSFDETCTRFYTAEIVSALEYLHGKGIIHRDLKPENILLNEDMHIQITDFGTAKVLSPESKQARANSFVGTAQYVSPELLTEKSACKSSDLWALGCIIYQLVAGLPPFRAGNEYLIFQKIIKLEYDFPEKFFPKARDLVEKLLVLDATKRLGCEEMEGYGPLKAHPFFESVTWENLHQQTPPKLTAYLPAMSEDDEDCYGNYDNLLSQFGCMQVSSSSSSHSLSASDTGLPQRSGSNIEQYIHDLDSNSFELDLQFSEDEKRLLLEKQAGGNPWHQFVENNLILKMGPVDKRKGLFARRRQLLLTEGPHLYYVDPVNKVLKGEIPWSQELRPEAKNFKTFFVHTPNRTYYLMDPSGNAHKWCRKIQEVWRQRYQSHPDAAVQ
The assay is described as follows: PDK1 Kinase Alpha Screen Assay. The settings on record: read-out: PDK1 IC50. The format is biochemical. In short, it runs like this: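 PDK1, 10 uM ATP, 50 nM biotin-PDK1-4 peptide; 50 mM Tris pH 7.5, 10 mM MgCl2, 0.1% BSA, 0.01% Tween-20, 2 mM DTT, 2.5% DMSO; 3-18 h. EDTA stop; AlphaScreen, phospho-Ser/Thr antibody, overnight RT.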

For assay [2], the system named is A2780 cells. The assay is described as follows: Cell Proliferation Assay (Cell Titer Glo), A2780. The format is cell-based. Particulars: Homo sapiens, read-out: CPEC50 A2780. The method, boiled down: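 Following a 3-day compound exposure (37° C., 5% CO2) of A2780 or PC3MM cells plated at 1000 per well, viability was measured by Cell Titer Glo luminescence in fresh medium, read 10 min after reagent addition.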

Setting [3] is: 72 h, A2780 cells, 3 days incubation.
Where [4] appears, read: Cell Proliferation Assay, A2780.

In general, IC50 refers to the point on the concentration scale where inhibition reaches its midpoint. Take `NC(=O)c1ccc(-c2ccc3cnc(Nc4ccc(S(N)(=O)=O)cc4)nc3c2)cc1` [Compound 124, 4-[2-(4-Sulfamoyl-phenylamino)-quinazolin-7-yl]-benzamide]: the IC50 in assay [1] was less than 5 µM. Moreover, in assay [2] (setting [3]), the EC50 lay within 5 to 10 µM.

Take `Nc1ccc(-c2ccc3cnc(Nc4ccc(S(N)(=O)=O)cc4)nc3c2)cn1` [Compound 130, 4-[7-(6-Amino-pyridin-3-yl)-quinazolin-2-ylamino]-benzenesulfonamide]: in assay [1], the IC50 was less than 5 µM. Further, the EC50 in assay [2] (setting [3]) was less than 5 µM.

As to `NC(=O)c1ccc(-c2ccc3cnc(Nc4ccc(S(N)(=O)=O)cc4)nc3c2)cn1` [Compound 131, 5-[2-(4-Sulfamoyl-phenylamino)-quinazolin-7-yl]-pyridine-2-carboxylic acid amide], in assay [1], the concentration for half-maximal inhibition (IC50) was less than 5 µM. Also, the EC50 in assay [2] (setting [3]) was 5 to 10 µM.

As to `NS(=O)(=O)c1ccc(Nc2ncc3ccc(-c4cn[nH]c4)cc3n2)cc1` [Compound 132, 4-[7-(1H-Pyrazol-4-yl)-quinazolin-2-ylamino]-benzenesulfonamide], the IC50 in assay [1] is less than 5 µM. In addition, the EC50 in assay [2] (setting [3]) was less than 5 µM.

Consider `CN1CCN(C(=O)c2ccc3cnc(Nc4ccc(S(N)(=O)=O)cc4)nc3c2)CC1` [Compound 135, 4-[7-(4-Methyl-piperazine-1-carbonyl)-quinazolin-2-ylamino]-benzenesulfonamide], for which the IC50 in assay [1] was in the range of 10 to 25 µM. The EC50 in assay [2] (setting [3]) is 5 to 10 µM.

As to `NS(=O)(=O)c1ccc(Nc2ncc3ccc(-c4ccc(C(=O)N5CCOCC5)cc4)cc3n2)cc1` [Compound 139, 4-{7-[4-(Morpholine-4-carbonyl)-phenyl]-quinazolin-2-ylamino}-benzenesulfonamide], in assay [1], the IC50 was less than 5 µM. The EC50 in assay [2] (setting [3]) lay in the range of 5 to 10 µM.

`NS(=O)(=O)c1ccc(Nc2ncc3cccc(C(=O)NC4CCCNC4)c3n2)cc1` (stereo not shown) [Compound 140, 2-(4-Sulfamoyl-phenylamino)-quinazoline-8-carboxylic acid piperidin-3-ylamide]: the IC50 in assay [1] is less than 5 µM. The EC50 in assay [2] (setting [3]) lay within 5 to 10 µM.

Turning to `CN(C)[C@@H]1CCN(C(=O)c2cccc3cnc(Nc4ccc(S(N)(=O)=O)cc4)nc23)C1` [Compound 141, 4-[8-((R)-3-Dimethylamino-pyrrolidine-1-carbonyl)-quinazolin-2-ylamino]-benzenesulfonamide], in assay [1], the IC50 is less than 5 µM. For the same compound, in assay [2] (setting [3]), the EC50 lay in the range of 5 to 10 µM.

Take `NS(=O)(=O)c1ccc(Nc2ncc3cccc(C(=O)NC4CCNCC4)c3n2)cc1` [Compound 142, 2-(4-Sulfamoyl-phenylamino)-quinazoline-8-carboxylic acid piperidin-4-ylamide]: the IC50 in assay [1] is less than 5 µM. In addition, in assay [2] (setting [3]), the EC50 was 5 to 10 µM.

`CN(C)[C@H]1CCN(C(=O)c2cccc3cnc(Nc4ccc(S(N)(=O)=O)cc4)nc23)C1` [Compound 143, 4-[8-((S)-3-Dimethylamino-pyrrolidine-1-carbonyl)-quinazolin-2-ylamino]-benzenesulfonamide]: the IC50 in assay [1] is less than 5 µM. Moreover, the EC50 in assay [2] (setting [3]) lay in the range of 5 to 10 µM.

As to `NS(=O)(=O)c1ccc(Nc2ncc3cccc(C(=O)N[C@H]4CN5CCC4CC5)c3n2)cc1` [Compound 144, 2-(4-Sulfamoyl-phenylamino)-quinazoline-8-carboxylic acid (R)-3-quinuclidinylamide], in assay [1], the IC50 lay in the range of 5 to 10 µM. Moreover, the EC50 in assay [2] (setting [3]) fell in the range of 5 to 10 µM.

Regarding `CC(C)COc1cccc2cnc(Nc3ccc(S(N)(=O)=O)cc3)nc12` [Compound 310, 4-(8-isobutoxyquinazolin-2-ylamino)benzenesulfonamide], the IC50 in assay [1] (PDK1 Kinase Alpha Screen Assay) is less than 5 µM. Also, in assay [2] (setting [4]), the EC50 is less than 5 µM.

In the case of `CC(=O)Nc1ccc(Nc2ncc3cccc(OC(C)C)c3n2)cc1` [Compound 311, N-(4-(8-isopropoxyquinazolin-2-ylamino)phenyl)acetamide], in assay [1] (PDK1 Kinase Alpha Screen Assay), the IC50 is less than 5 µM. Besides, the EC50 in assay [2] (setting [4]) lay within 5 to 10 µM.

For `CC(=O)NS(=O)(=O)c1ccc(Nc2ncc3cccc(OC(C)C)c3n2)cc1` [Compound 312, N-(4-(8-isopropoxyquinazolin-2-ylamino)phenylsulfonyl)acetamide], the IC50 in assay [1] (PDK1 Kinase Alpha Screen Assay) is less than 5 µM. For the same compound, the EC50 in assay [2] (setting [4]) is 5 to 10 µM.

In the case of `CC(C)Oc1cccc2cnc(Nc3ccc(NC(=O)CN(C)C)cc3)nc12` [Compound 313, 2-(dimethylamino)-N-(4-(8-isopropoxyquinazolin-2-ylamino)phenyl)acetamide], in assay [1] (PDK1 Kinase Alpha Screen Assay), the IC50 was 5 to 10 µM. For the same compound, the EC50 in assay [2] (setting [4]) is less than 5 µM.

As to `Nc1ccc2cnc(Nc3ccc(S(N)(=O)=O)cc3)nc2c1` [Compound 315, 4-(7-aminoquinazolin-2-ylamino]-benzenesulfonamide], in assay [1] (PDK1 Kinase Alpha Screen Assay), the IC50 is less than 5 µM. Moreover, the EC50 in assay [2] (setting [4]) is less than 5 µM.

Consider `CC(=O)Nc1ccc2cnc(Nc3ccc(S(N)(=O)=O)cc3)nc2c1` [Compound 316, N-(2-(4-sulfamoylphenylamino)quinazolin-7-yl)acetamide], for which the IC50 in assay [1] (PDK1 Kinase Alpha Screen Assay) is less than 5 µM. The EC50 in assay [2] (setting [4]) is less than 5 µM.

Turning to `NS(=O)(=O)c1ccc(Nc2ncc3cccc(OCc4ccc5nnsc5c4)c3n2)cc1` [Compound 386, 4-(8-(benzo[d][1,2,3]thiadiazol-6-ylmethoxy)quinazolin-2-ylamino)benzenesulfonamide], the IC50 in assay [1] (PDK1 Kinase Alpha Screen Assay) was less than 5 µM. For the same compound, in assay [2] (setting [4]), the EC50 is less than 5 µM.

`NS(=O)(=O)c1ccc(Nc2ncc3cc(Br)cc(O)c3n2)cc1` [Compound 388, 4-(6-bromo-8-hydroxyquinazolin-2-ylamino)benzenesulfonamide]: in assay [1] (PDK1 Kinase Alpha Screen Assay), the IC50 was less than 5 µM. Further, in assay [2] (setting [4]), the EC50 is less than 5 µM.

Consider `NS(=O)(=O)c1ccc(Nc2ncc3cccc(OCCCn4c(=O)[nH]c5ccccc54)c3n2)cc1` [Compound 391, 4-(8-(3-(2-oxo-2,3-dihydro-1H-benzo[d]imidazol-1-yl)propoxy)quinazolin-2-ylamino)benzenesulfonamide], for which, in assay [1] (PDK1 Kinase Alpha Screen Assay), the IC50 is less than 5 µM. Further, the EC50 in assay [2] (setting [4]) lay within 5 to 10 µM.

`COCCN(C)Cc1cccc2cnc(Nc3ccc(S(N)(=O)=O)cc3)nc12` [Compound 392, 4-(8-(((2-methoxyethyl)(methyl)amino)methyl)quinazolin-2-ylamino)benzenesulfonamide]: the IC50 in assay [1] (PDK1 Kinase Alpha Screen Assay) was less than 5 µM. In assay [2] (setting [4]), the EC50 was less than 5 µM.

Regarding `COc1cccc(Oc2cccc3cnc(Nc4ccc(S(N)(=O)=O)cc4)nc23)c1` [Compound 406, 4-(8-(3-methoxyphenoxy)quinazolin-2-ylamino)benzenesulfonamide], the IC50 in assay [1] (PDK1 Kinase Alpha Screen Assay) is less than 5 µM. For the same compound, the EC50 in assay [2] (setting [4]) is less than 5 µM.

Consider `COc1ccc(Oc2cccc3cnc(Nc4ccc(S(N)(=O)=O)cc4)nc23)cc1` [Compound 407, 4-(8-(4-methoxyphenoxy)quinazolin-2-ylamino)benzenesulfonamide], for which, in assay [1] (PDK1 Kinase Alpha Screen Assay), the IC50 is less than 5 µM. In addition, in assay [2] (setting [4]), the EC50 is less than 5 µM.

As to `N#Cc1ccc(Oc2cccc3cnc(Nc4ccc(S(N)(=O)=O)cc4)nc23)cc1` [Compound 409, 4-(8-(4-cyanophenoxy)quinazolin-2-ylamino)benzenesulfonamide], in assay [1] (PDK1 Kinase Alpha Screen Assay), the IC50 was less than 5 µM. The EC50 in assay [2] (setting [4]) is 5 to 10 µM.

On to `COc1cccc(Oc2ccc3cnc(Nc4ccc(S(N)(=O)=O)cc4)nc3c2)c1` [Compound 415, 4-(7-(3-methoxyphenoxy)quinazolin-2-ylamino)benzenesulfonamide], for which the IC50 in assay [1] (PDK1 Kinase Alpha Screen Assay) was less than 5 µM. The EC50 in assay [2] (setting [4]) was less than 5 µM.

`NS(=O)(=O)c1ccc(Nc2ncc3ccc(Br)c(O)c3n2)cc1` [Compound 421, 4-(7-bromo-8-hydroxyquinazolin-2-ylamino)benzenesulfonamide]: the IC50 in assay [1] (PDK1 Kinase Alpha Screen Assay) fell in the range of 5 to 10 µM. In assay [2] (setting [4]), the EC50 is less than 5 µM.

`CNS(=O)(=O)Cc1ccc(Nc2ncc3cccc(OC)c3n2)cc1` [Compound 498, 1-(4-(8-methoxyquinazolin-2-ylamino)phenyl)-N-methylmethanesulfonamide]: the IC50 in assay [1] (PDK1 Kinase Alpha Screen Assay) is less than 5 µM. Moreover, in assay [2] (setting [4]), the EC50 fell in the range of 5 to 10 µM.

As to `CC(C)Oc1cccc2cnc(Nc3ccc(S(=O)(=O)N4CCN(C)CC4)cc3)nc12` [Compound 499, 8-isopropoxy-N-(4-(4-methylpiperazin-1-ylsulfonyl)phenyl)quinazolin-2-amine], in assay [1] (PDK1 Kinase Alpha Screen Assay), the IC50 is less than 5 µM. Moreover, the EC50 in assay [2] (setting [4]) lay within 5 to 10 µM.

As to `CN(C)CCOc1cccc2cnc(Nc3ccc(C(N)=O)cc3)nc12` [Compound 504, 4-(8-(2-(dimethylamino)ethoxy)quinazolin-2-ylamino)benzamide], in assay [1] (PDK1 Kinase Alpha Screen Assay), the IC50 is less than 5 µM. The EC50 in assay [2] (setting [4]) is less than 5 µM.

Consider `NC(=O)c1ccc(Nc2ncc3cccc(OC4CCCC4)c3n2)cc1` [Compound 505, 4-(8-(cyclopentyloxy)quinazolin-2-ylamino)benzamide], for which, in assay [1] (PDK1 Kinase Alpha Screen Assay), the IC50 is less than 5 µM. Further, the EC50 in assay [2] (setting [4]) is less than 5 µM.

In the case of `CC(C)Oc1cccc2cnc(Nc3ccc(C(N)=O)cc3)nc12` [Compound 506, 4-(8-isopropoxyquinazolin-2-ylamino)benzamide], the IC50 in assay [1] (PDK1 Kinase Alpha Screen Assay) is less than 5 µM. In addition, in assay [2] (setting [4]), the EC50 is less than 5 µM.

Regarding `NCCOc1cccc2cnc(Nc3ccccc3)nc12` [Compound 507, 8-(2-aminoethoxy)-N-phenylquinazolin-2-amine], the IC50 in assay [1] (PDK1 Kinase Alpha Screen Assay) was less than 5 µM. Moreover, the EC50 in assay [2] (setting [4]) is 5 to 10 µM.
